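The concentration for 50% growth inhibition is given as GI50. Definition used: TGI = concentration required for complete inhibition of growth.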
Columns and labels:
Experiment in all cases: NCI-60 cell line screen, 384-well format
A498 renal = test system: A498 renal
A549 NSCLC = test system: A549 NSCLC
ACHN renal = test system: ACHN renal
BT-549 breast = test system: BT-549 breast
CAKI-1 renal = test system: CAKI-1 renal
COLO 205 colon = test system: COLO 205 colon
DU-145 prostate = test system: DU-145 prostate
EKVX NSCLC = test system: EKVX NSCLC
HCC-2998 colon = test system: HCC-2998 colon
HCT-116 colon = test system: HCT-116 colon
HCT-15 colon = test system: HCT-15 colon
HL-60(TB) leukemia = test system: HL-60(TB) leukemia
HOP-62 NSCLC = test system: HOP-62 NSCLC
HOP-92 NSCLC = test system: HOP-92 NSCLC
HS 578T breast = test system: HS 578T breast
HT29 colon = test system: HT29 colon
IGROV1 ovarian = test system: IGROV1 ovarian
KM12 colon = test system: KM12 colon
LOX IMVI melanoma = test system: LOX IMVI melanoma
M14 melanoma = test system: M14 melanoma
MALME-3M melanoma = test system: MALME-3M melanoma
MCF7 breast = test system: MCF7 breast
MDA-MB-231 breast = test system: MDA-MB-231 breast
MDA-MB-435 melanoma = test system: MDA-MB-435 melanoma
MDA-MB-468 breast = test system: MDA-MB-468 breast
MOLT-4 leukemia = test system: MOLT-4 leukemia
NCI-H226 lung = test system: NCI-H226 lung
NCI-H23 lung = test system: NCI-H23 lung
NCI-H322M lung = test system: NCI-H322M lung
NCI-H460 NSCLC = test system: NCI-H460 NSCLC
NCI-H522 lung = test system: NCI-H522 lung
NCI/ADR-RES ovarian = test system: NCI/ADR-RES ovarian
OVCAR-3 ovarian = test system: OVCAR-3 ovarian
OVCAR-4 ovarian = test system: OVCAR-4 ovarian
OVCAR-5 ovarian = test system: OVCAR-5 ovarian
OVCAR-8 ovarian = test system: OVCAR-8 ovarian
PC-3 prostate = test system: PC-3 prostate
RPMI-8226 leukemia = test system: RPMI-8226 leukemia
RXF 393 renal = test system: RXF 393 renal
SF-268 CNS = test system: SF-268 CNS
SF-295 CNS = test system: SF-295 CNS
SF-539 CNS = test system: SF-539 CNS
SK-MEL-28 melanoma = test system: SK-MEL-28 melanoma
SK-MEL-5 melanoma = test system: SK-MEL-5 melanoma
SK-OV-3 ovarian = test system: SK-OV-3 ovarian
SN12C renal = test system: SN12C renal
SNB-19 CNS = test system: SNB-19 CNS
SNB-75 CNS = test system: SNB-75 CNS
SR leukemia = test system: SR leukemia
T-47D breast = test system: T-47D breast
TK-10 renal = test system: TK-10 renal
U251 glioblastoma = test system: U251 glioblastoma
UACC-257 melanoma = test system: UACC-257 melanoma
UACC-62 melanoma = test system: UACC-62 melanoma

With `O=C(O)CCCCC(CCSCc1ccccc1)SCc1ccccc1` (stereo not drawn) the GI50 (A498 renal) was 42.3 µM, the TGI (A498 renal) was greater than 100 µM and the GI50 (A549 NSCLC) was 44 µM. It also gave a TGI (A549 NSCLC) greater than 100 µM, a GI50 (ACHN renal) greater than 100 µM and a TGI (ACHN renal) greater than 100 µM. The GI50 (BT-549 breast) was greater than 100 µM, the TGI (BT-549 breast) was greater than 100 µM and the GI50 (CAKI-1 renal) was greater than 100 µM. For the same compound, the TGI (CAKI-1 renal) was greater than 100 µM, the GI50 (COLO 205 colon) was greater than 100 µM and the TGI (COLO 205 colon) was greater than 100 µM. The GI50 (DU-145 prostate) was 64 µM, the TGI (DU-145 prostate) was greater than 100 µM and the GI50 (EKVX NSCLC) was 37.3 µM. The TGI (EKVX NSCLC) was greater than 100 µM, the GI50 (HCC-2998 colon) was 47.5 µM and the TGI (HCC-2998 colon) was greater than 100 µM. The GI50 (HCT-116 colon) was 47.5 µM, the TGI (HCT-116 colon) was greater than 100 µM and the GI50 (HCT-15 colon) was 45.1 µM. It also gave a TGI (HCT-15 colon) greater than 100 µM, a GI50 (HL-60(TB) leukemia) of 58.8 µM and a TGI (HL-60(TB) leukemia) greater than 100 µM. The GI50 (HOP-62 NSCLC) was 50.4 µM, the TGI (HOP-62 NSCLC) was greater than 100 µM and the GI50 (HOP-92 NSCLC) was greater than 100 µM. For the same compound, the TGI (HOP-92 NSCLC) was greater than 100 µM, the GI50 (HS 578T breast) was greater than 100 µM and the TGI (HS 578T breast) was greater than 100 µM. The GI50 (HT29 colon) was 53.7 µM, the TGI (HT29 colon) was greater than 100 µM and the GI50 (IGROV1 ovarian) was 68.3 µM. It also gave a TGI (IGROV1 ovarian) greater than 100 µM, a GI50 (KM12 colon) of 45.4 µM and a TGI (KM12 colon) greater than 100 µM. The GI50 (LOX IMVI melanoma) was greater than 100 µM, the TGI (LOX IMVI melanoma) was greater than 100 µM and the GI50 (M14 melanoma) was greater than 100 µM. For the same compound, the TGI (M14 melanoma) was greater than 100 µM, the GI50 (MALME-3M melanoma) was greater than 100 µM and the TGI (MALME-3M melanoma) was greater than 100 µM. It also gave a GI50 (MCF7 breast) of 66.9 µM, a TGI (MCF7 breast) greater than 100 µM and a GI50 (MDA-MB-231 breast) greater than 100 µM. It also gave a TGI (MDA-MB-231 breast) greater than 100 µM, a GI50 (MDA-MB-435 melanoma) greater than 100 µM and a TGI (MDA-MB-435 melanoma) greater than 100 µM. The GI50 (MDA-MB-468 breast) was 39.7 µM, the TGI (MDA-MB-468 breast) was greater than 100 µM and the GI50 (MOLT-4 leukemia) was greater than 100 µM. It also gave a TGI (MOLT-4 leukemia) greater than 100 µM, a GI50 (NCI-H226 lung) of 97.6 µM and a TGI (NCI-H226 lung) greater than 100 µM. For the same compound, the GI50 (NCI-H23 lung) was 50.5 µM, the TGI (NCI-H23 lung) was greater than 100 µM and the GI50 (NCI-H322M lung) was 90.6 µM. The TGI (NCI-H322M lung) was greater than 100 µM, the GI50 (NCI-H460 NSCLC) was 34.2 µM and the TGI (NCI-H460 NSCLC) was greater than 100 µM. The GI50 (NCI-H522 lung) was 27.6 µM, the TGI (NCI-H522 lung) was 73.3 µM and the GI50 (NCI/ADR-RES ovarian) was greater than 100 µM. It also gave a TGI (NCI/ADR-RES ovarian) greater than 100 µM, a GI50 (OVCAR-3 ovarian) of 45.2 µM and a TGI (OVCAR-3 ovarian) greater than 100 µM. It also gave a GI50 (OVCAR-4 ovarian) of 59 µM, a TGI (OVCAR-4 ovarian) greater than 100 µM and a GI50 (OVCAR-5 ovarian) greater than 100 µM. For the same compound, the TGI (OVCAR-5 ovarian) was greater than 100 µM, the GI50 (OVCAR-8 ovarian) was greater than 100 µM and the TGI (OVCAR-8 ovarian) was greater than 100 µM. The GI50 (PC-3 prostate) was 59.6 µM, the TGI (PC-3 prostate) was greater than 100 µM and the GI50 (RPMI-8226 leukemia) was 33.7 µM. For the same compound, the TGI (RPMI-8226 leukemia) was 84.4 µM, the GI50 (RXF 393 renal) was greater than 100 µM and the TGI (RXF 393 renal) was greater than 100 µM. It also gave a GI50 (SF-268 CNS) greater than 100 µM, a TGI (SF-268 CNS) greater than 100 µM and a GI50 (SF-295 CNS) of 39.3 µM. For the same compound, the TGI (SF-295 CNS) was greater than 100 µM, the GI50 (SF-539 CNS) was greater than 100 µM and the TGI (SF-539 CNS) was greater than 100 µM. The GI50 (SK-MEL-28 melanoma) was greater than 100 µM, the TGI (SK-MEL-28 melanoma) was greater than 100 µM and the GI50 (SK-MEL-5 melanoma) was 33.4 µM. For the same compound, the TGI (SK-MEL-5 melanoma) was greater than 100 µM, the GI50 (SK-OV-3 ovarian) was greater than 100 µM and the TGI (SK-OV-3 ovarian) was greater than 100 µM. It also gave a GI50 (SN12C renal) greater than 100 µM, a TGI (SN12C renal) greater than 100 µM and a GI50 (SNB-19 CNS) of 94 µM. It also gave a TGI (SNB-19 CNS) greater than 100 µM, a GI50 (SNB-75 CNS) greater than 100 µM and a TGI (SNB-75 CNS) greater than 100 µM. For the same compound, the GI50 (SR leukemia) was 22.6 µM, the TGI (SR leukemia) was 67.1 µM and the GI50 (T-47D breast) was 68.7 µM. It also gave a TGI (T-47D breast) greater than 100 µM, a GI50 (TK-10 renal) of 50.2 µM and a TGI (TK-10 renal) greater than 100 µM. The GI50 (U251 glioblastoma) was 45.3 µM, the TGI (U251 glioblastoma) was greater than 100 µM and the GI50 (UACC-257 melanoma) was 62.2 µM. It also gave a TGI (UACC-257 melanoma) greater than 100 µM, a GI50 (UACC-62 melanoma) of 75.7 µM and a TGI (UACC-62 melanoma) greater than 100 µM.

Source: PubChem BioAssay (NCI)
